Laboratory results published in PubChem BioAssay (NCI).
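Briefly, cells in 96-well plates were exposed to five compound concentrations for 48 h, and endpoints were estimated by linear interpolation. The concentration for 50% growth inhibition is given as GI50. TGI: concentration producing complete growth inhibition.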

What was measured:
Experiment in all cases: DTP human tumour cell line panel, 48 h
HOP-92 NSCLC = test system: HOP-92 NSCLC
PC-3 prostate = test system: PC-3 prostate
MDA-MB-468 breast = test system: MDA-MB-468 breast
SW-620 colon = test system: SW-620 colon
NCI-H460 lung = test system: NCI-H460 lung
NCI-H522 lung = test system: NCI-H522 lung
LOX IMVI melanoma = test system: LOX IMVI melanoma
OVCAR-3 ovarian = test system: OVCAR-3 ovarian
SNB-75 CNS = test system: SNB-75 CNS
SF-295 CNS = test system: SF-295 CNS
ACHN renal = test system: ACHN renal
UO-31 renal = test system: UO-31 renal
OVCAR-8 ovarian = test system: OVCAR-8 ovarian
OVCAR-5 ovarian = test system: OVCAR-5 ovarian
MOLT-4 leukemia = test system: MOLT-4 leukemia
SF-268 CNS = test system: SF-268 CNS
MDA-MB-435 = test system: MDA-MB-435
KM12 colon = test system: KM12 colon
HCT-15 colon = test system: HCT-15 colon
SNB-19 CNS = test system: SNB-19 CNS
OVCAR-4 ovarian = test system: OVCAR-4 ovarian
786-0 renal = test system: 786-0 renal
SK-MEL-28 melanoma = test system: SK-MEL-28 melanoma
DU-145 prostate = test system: DU-145 prostate
RXF 393 renal = test system: RXF 393 renal
SR leukemia = test system: SR leukemia
HS 578T breast = test system: HS 578T breast
SK-OV-3 ovarian = test system: SK-OV-3 ovarian
K-562 leukemia = test system: K-562 leukemia
MALME-3M melanoma = test system: MALME-3M melanoma
MDA-MB-231 breast = test system: MDA-MB-231 breast
HT29 colon = test system: HT29 colon
UACC-257 melanoma = test system: UACC-257 melanoma
HOP-62 NSCLC = test system: HOP-62 NSCLC
UACC-62 melanoma = test system: UACC-62 melanoma
COLO 205 colon = test system: COLO 205 colon
T-47D breast = test system: T-47D breast
HCC-2998 colon = test system: HCC-2998 colon
CCRF-CEM leukemia = test system: CCRF-CEM leukemia
HL-60(TB) leukemia = test system: HL-60(TB) leukemia
IGROV1 ovarian = test system: IGROV1 ovarian
SF-539 CNS = test system: SF-539 CNS
CAKI-1 renal = test system: CAKI-1 renal
SK-MEL-2 melanoma = test system: SK-MEL-2 melanoma
A549 NSCLC = test system: A549 NSCLC
U251 CNS = test system: U251 CNS
SN12C renal = test system: SN12C renal
A498 renal = test system: A498 renal
HCT-116 colon = test system: HCT-116 colon
M14 melanoma = test system: M14 melanoma
EKVX NSCLC = test system: EKVX NSCLC
NCI-H23 lung = test system: NCI-H23 lung
RPMI-8226 leukemia = test system: RPMI-8226 leukemia
NCI-H226 lung = test system: NCI-H226 lung
MCF7 breast = test system: MCF7 breast
BT-549 breast = test system: BT-549 breast
TK-10 renal = test system: TK-10 renal
SK-MEL-5 melanoma = test system: SK-MEL-5 melanoma

## O=C1Nc2ccc(Cl)cc2/C1=C/c1ccc(OCc2ccc(Br)cc2F)cc1
HOP-92 NSCLC
  GI50: 2.12 µM
  TGI: 6.91 µM
PC-3 prostate
  GI50: 3.79 µM
  TGI: 16.6 µM
MDA-MB-468 breast
  GI50: 8.46 µM
  TGI: 21.9 µM
SW-620 colon
  GI50: 2.8 µM
  TGI: 10.3 µM
NCI-H460 lung
  GI50: 2.1 µM
  TGI: 4.38 µM
NCI-H522 lung
  GI50: 3.31 µM
  TGI: 11.1 µM
LOX IMVI melanoma
  GI50: 2.88 µM
  TGI: 10 µM
OVCAR-3 ovarian
  GI50: 3.28 µM
  TGI: 10.1 µM
SNB-75 CNS
  GI50: 2 µM
  TGI: 7.32 µM
SF-295 CNS
  GI50: 3.24 µM
  TGI: 12.1 µM
ACHN renal
  GI50: 2.19 µM
  TGI: 5.29 µM
UO-31 renal
  GI50: 1.46 µM
  TGI: 6.65 µM
OVCAR-8 ovarian
  GI50: 3.74 µM
  TGI: 15.1 µM
OVCAR-5 ovarian
  GI50: 13 µM
  TGI: 42.9 µM
MOLT-4 leukemia
  GI50: 4.63 µM
  TGI: 19.2 µM
SF-268 CNS
  GI50: 5.01 µM
  TGI: 17.7 µM
MDA-MB-435
  GI50: 9.81 µM
  TGI: 22.2 µM
KM12 colon
  GI50: 8.56 µM
  TGI: 25.7 µM
HCT-15 colon
  GI50: 5.77 µM
  TGI: 21 µM
SNB-19 CNS
  GI50: 4.06 µM
  TGI: 15.7 µM
OVCAR-4 ovarian
  GI50: 2.06 µM
  TGI: 4.67 µM
786-0 renal
  GI50: 3.06 µM
  TGI: 8.32 µM
SK-MEL-28 melanoma
  GI50: 5.42 µM
  TGI: 17.4 µM
DU-145 prostate
  GI50: 10.2 µM
  TGI: 26.6 µM
RXF 393 renal
  GI50: 4.73 µM
  TGI: 18.1 µM
SR leukemia
  GI50: 2.72 µM
  TGI: 9.16 µM
HS 578T breast
  GI50: 2.37 µM
  TGI: 6.69 µM
SK-OV-3 ovarian
  GI50: 4.2 µM
  TGI: 17.9 µM
K-562 leukemia
  GI50: 3.87 µM
  TGI: 15.3 µM
MALME-3M melanoma
  GI50: 2.76 µM
  TGI: 9.8 µM
MDA-MB-231 breast
  GI50: 3.21 µM
  TGI: 12.2 µM
HT29 colon
  GI50: 12.9 µM
  TGI: 29.1 µM
UACC-257 melanoma
  GI50: 13 µM
  TGI: 27.6 µM
HOP-62 NSCLC
  GI50: 3.14 µM
  TGI: 11.7 µM
UACC-62 melanoma
  GI50: 3.72 µM
  TGI: 15.4 µM
COLO 205 colon
  GI50: 9.18 µM
  TGI: 37.5 µM
T-47D breast
  GI50: 10.9 µM
  TGI: 30.8 µM
HCC-2998 colon
  GI50: 20.5 µM
  TGI: 65.7 µM
CCRF-CEM leukemia
  GI50: 4.55 µM
  TGI: 17.7 µM
HL-60(TB) leukemia
  GI50: 10.9 µM
  TGI: 26.1 µM
IGROV1 ovarian
  GI50: 4.11 µM
  TGI: 15.5 µM
SF-539 CNS
  GI50: 6.32 µM
  TGI: 19.1 µM
CAKI-1 renal
  GI50: 2.05 µM
  TGI: 7.06 µM
SK-MEL-2 melanoma
  GI50: 15.5 µM
  TGI: 30.1 µM
A549 NSCLC
  GI50: 3.25 µM
  TGI: 11.3 µM
U251 CNS
  GI50: 2.03 µM
  TGI: 4.07 µM
SN12C renal
  GI50: 4.62 µM
  TGI: 18.7 µM
A498 renal
  GI50: 2.45 µM
  TGI: 5.42 µM
HCT-116 colon
  GI50: 3.13 µM
  TGI: 10.7 µM
M14 melanoma
  GI50: 4.97 µM
  TGI: 18.6 µM
EKVX NSCLC
  GI50: 4.51 µM
  TGI: 22.1 µM
NCI-H23 lung
  GI50: 2.98 µM
  TGI: 12.2 µM
RPMI-8226 leukemia
  GI50: 9.01 µM
  TGI: 24 µM
NCI-H226 lung
  GI50: 2.66 µM
  TGI: 11.5 µM
MCF7 breast
  GI50: 2.95 µM
  TGI: 14.2 µM
BT-549 breast
  GI50: 9.48 µM
  TGI: 26.8 µM
TK-10 renal
  GI50: 6.75 µM
  TGI: 22.9 µM
SK-MEL-5 melanoma
  GI50: 10.8 µM
  TGI: 23.1 µM
